From patent US9585933B2, “Therapeutic use of peptide inhibitors of NADPH oxidase; aerosolization as a delivery mechanism” (University of Pittsburgh—Of the Commonwealth System of …, priority 2011, dated 2017)
Where no end group is shown, it is not given here.

Columns and labels:
[1] = biological target: T1, Nox2 oxidase (COS-Nox2 lysate: Nox2, p22phox, p47phox, p67phox) (Homo sapiens, UniProt P14598); experiment: Cell-free SOD-inhibitable cytochrome c reduction assay, O2- production in COS-Nox2 lysates; format: biochemical; settings: for rate of O2- generation, SOD-inhibitable reduction of cytochrome c: 0 μM control 1.33±0.1
T1 construct: host or cells: COS 7 cells, stably transfected; cell lysate used
T1 sequence (P14598 1-390): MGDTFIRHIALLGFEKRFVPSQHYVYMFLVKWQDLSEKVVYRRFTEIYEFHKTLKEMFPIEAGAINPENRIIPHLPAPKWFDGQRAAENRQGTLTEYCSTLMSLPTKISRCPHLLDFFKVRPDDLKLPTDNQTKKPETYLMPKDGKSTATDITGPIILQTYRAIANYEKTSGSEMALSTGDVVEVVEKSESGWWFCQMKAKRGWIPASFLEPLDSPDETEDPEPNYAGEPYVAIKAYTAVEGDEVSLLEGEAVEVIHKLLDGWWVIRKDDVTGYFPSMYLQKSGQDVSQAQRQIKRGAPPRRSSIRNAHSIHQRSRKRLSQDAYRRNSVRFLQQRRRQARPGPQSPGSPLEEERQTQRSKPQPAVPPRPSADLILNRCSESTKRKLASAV
Method: To test this hypothesis, the inhibitory activity of Nox2ds was assessed in cell-free assays using reconstituted systems expressing either Nox1, 2 or 4 oxidase. Nox 2 oxidase was recapitulated by stably transfecting COS 7 cells with Nox2, p22phox, p47phox, and p67phox (aka COS-Nox2). Nox1 oxidase was obtained by transfecting COS 7 cells with Nox1, p22phox, NOXO1 and NOXA1 (COS-Nox1), and Nox 4 oxidase was regenerated by transfection of COS 7 cells with Nox4 and p22phox. […] Our new data support selectivity of Nox2ds peptide in differentiating the contribution of Nox2 vs. Nox1 and Nox4 NADPH oxidase and its potential clinical use in ameliorating cardiopulmonary diseases.
COS-Nox2: COS 7 cells transfected with p22^phox, Nox2, p47^phox and p67^phox (M. Dinauer, Indiana University). (Price M O, McPhail L C, Lambeth J D, Han C H, Knaus U G, Dinauer M C. Blood. 2002 Apr. 15; 99(8):2653-61.)
Superoxide (O2^−) production was measured in COS-Nox1 and COS-Nox2 lysates by determining the rate of O2^− dismutase (SOD) inhibitable cytochrome c reduction and by electron paramagnetic resonance (EPR).
COS-Nox2, COS-Nox1/NOXO1/NOXA1, and COS-22 cells were suspended to a concentration of 5×10^7 cells/ml in ice-cold disruption buffer (8 mM potassium, sodium phosphate buffer, pH 7.0, 131 mM NaCl, 340 mM sucrose, 2 mM NaN3, 5 mM MgCl2, 1 mM EGTA, 1 mM EDTA, and protease inhibitor cocktail). The cells were lysed by five freeze/thaw cycles and passed through a 30-gauge needle five times to further lyse the cells. Cell disruption was confirmed by phase-contrast microscopy. The cell lysate was centrifuged at 1000 g for 10 min at 4° C. to remove unbroken cells, nuclei, and debris. Throughout all these procedures, extreme care was taken to maintain the lysate at a temperature close to 0° C. Superoxide production was calculated from the initial linear rate (over 10 min) of SOD-inhibitable cytochrome c reduction quantified at 550 nm using the extinction coefficient of 21.1 mM-1 cm-1 (Biotek Synergy 4 hybrid multimode microplate reader). The oxidase assay buffer consisted of 65 mM sodium phosphate buffer (pH 7.0), 1 mM EGTA, 10 μM FAD, 1 mM MgCl2, 2 mM NaN3, and 0.2 mM cytochrome c. The components of the cell-free system were added in the following order: oxidase assay buffer, cell lysate (5×10^5 cell equivalents/well), and Nox2ds/Scrmb Nox2ds peptides at a final concentration of 0.1, 0.3, 1.0, 3.0, and 10 μM. The plates were placed on an orbital shaker to mix contents for 5 min at 120 movements/min at room temperature. LIDS, an established lipid activator of phagocyte cell-free systems, was added at a concentration of 130 μM, and O2^− production was initiated by the addition of 180 μM NADPH. The concentration of Nox2ds peptide that caused 50% inhibition of O2^− production (IC50) in COS-Nox2 cell lysates was calculated by Prism 5 (GraphPad Software, La Jolla, Calif., USA).
Cytochrome C Assay. FIG. 3A. Rate of O2^− production in COS-Nox2 lysates pretreated with Nox2ds or scrambled control (Scrmb Nox2ds). O2^− production was initiated by the addition of NADPH and measured by the SOD-inhibitable cytochrome c reduction for 10 min.

[2] = system: hypoxia-induced pulmonary hypertension in mice; experiment: Aerosolized peptide in hypoxia-induced pulmonary hypertension, right ventricular hypertrophy; format: in vivo, mice (C57BL/6)
Method: Nebulization was performed using a peptide solution of 5.6 mg of the Nox2ds-tat polypeptide—RKKRRQRRRCSTRIRRQL (SEQ ID NO: 7)—was dissolved in 5 mL of PBS. The polypeptide-containing solution was placed in a nebulization chamber which consisted of a Plexiglas living environment measuring 24×10×9 in. A diffuser was placed in front of the inlet to allow equal distribution of nebulized droplets, and a controlled fan pulled air through the environment
The polypeptide was delivered to mice (C57BL/6, n=2) at an air flow rate of 8 L/minute for 20 minutes per treatment. Treatment was repeated every other day for 21 days.
FIG. 7 (top panel) is a graph showing right ventricular pressure and FIG. 7 (bottom panel) is a graph showing the Fulton's Index for the mice tested. To obtain a Fulton's Index, the heart and lungs are excised and weighed, and the ratio of RV free wall weight over septum plus left ventricular (LV) free wall weight is estimated and used as the index of RV hypertrophy.
Invasive hemodynamics to examine RV function were carried out using pressure-volume loop analysis (Scisence P/V loop hardware, London, Ontario with IOX2 analysis software, EMKA, Falls Church, Va.). Contractility index (dP/dtmax/IP), Powermax/EDV, and ejection fraction as indicators of RV systolic function as well as the time constant of relaxation (Tau) and dP/dtmin as measures of RV relaxation were determined.

Substance: CSTRVRRQL-NH2 [Nox2ds, CSTRVRRQL]
- rate of O2- generation, SOD-inhibitable reduction of cytochrome c ([1]; 0.1 μM peptide): 1.36±0.1 nmol O2^−/min/10^7 lysate-cell equivalents
- rate of O2- generation, SOD-inhibitable reduction of cytochrome c ([1]; 0.3 μM peptide): 1.05±0.2 nmol O2^−/min/10^7 lysate-cell equivalents
- rate of O2- generation, SOD-inhibitable reduction of cytochrome c ([1]; 1 μM peptide): 0.83±0.1 nmol O2^−/min/10^7 lysate-cell equivalents
- rate of O2- generation, SOD-inhibitable reduction of cytochrome c ([1]; 3 μM peptide): 0.82±0.1 nmol O2^−/min/10^7 lysate-cell equivalents
- rate of O2- generation, SOD-inhibitable reduction of cytochrome c ([1]; 10 μM peptide): 0.54±0.1 nmol O2^−/min/10^7 lysate-cell equivalents
- inhibition of Nox2-oxidase O2- production (in words) ([1]; cytochrome c assay): concentration-dependently inhibited
- right ventricular hypertrophy and RV pressure (in words) ([2]; hypoxia-induced pulmonary hypertension in mice): attenuated
- right ventricule/left ventricule+septum ratio (Fulton's Index) ([2]; hypoxic mice, n=2, normoxic 0.21±0.01, hypoxic 0.27±0.02, preliminary data): 0.22±0.004
